Tests used:
Type in all cases: functional
Mus musculus [1] = experiment: Antagonism of apomorphine for 10-20 minutes in reserpinized mice when a dose of 0.3 micro mol/kg is administered intraperitoneally
Mus musculus [2] = experiment: Antagonism of apomorphine for 10-20 minutes in reserpinized mice when a dose of 33 micro mol/kg is administered intraperitoneally; further: unit not given here
Mus musculus [3] = experiment: Antagonism of apomorphine in reserpinized mice when a dose of 0.3 micro mol/kg is administered intraperitoneally; further: unit not given here
Mus musculus [4] = experiment: Antagonism of apomorphine in reserpinized mice when a dose of 33 micro mol/kg is administered intraperitoneally; further: unit not given here
Mus musculus [5] = experiment: Antagonism of apomorphine in reserpinized mice when a dose of 3.3 micro mol/kg is administered intraperitoneally; further: unit not given here
Mus musculus [6] = experiment: Antagonism of apomorphine for 0-10 minutes in reserpinized mice when a dose of 0.3 micro mol/kg is administered intraperitoneally
Mus musculus [7] = experiment: Ability to stimulate dopaminergic systems by effect on locomotor activity in reserpinized mice when a dose of 0.3 micro mol/kg is administered intraperitoneally; further: unit not given here
Mus musculus [8] = experiment: Antagonism of apomorphine for 0-10 minutes in reserpinized mice when a dose of 33 micro mol/kg is administered intraperitoneally
Mus musculus [9] = experiment: Antagonism of apomorphine for 10-20 minutes in reserpinized mice when a dose of 3.3 micro mol/kg is administered intraperitoneally
Mus musculus [10] = experiment: Ability to stimulate dopaminergic systems by effect on locomotor activity in reserpinized mice when a dose of 3.3 micro mol/kg is administered intraperitoneally; further: unit not given here
Mus musculus [11] = experiment: Antagonism of apomorphine for 0-10 minutes in reserpinized mice when a dose of 3.3 micro mol/kg is administered intraperitoneally
Mus musculus [12] = experiment: Ability to stimulate dopaminergic systems by effect on locomotor activity in reserpinized mice when a dose of 33 micro mol/kg is administered intraperitoneally; further: unit not given here

With CCCN1CCCC(c2cccc(O)c2)C1 (single isomer, unassigned; (-)) the Locomotor activity (Mus musculus [1]) was 106, the Locomotor activity (Mus musculus [2]) was 58 and the Locomotor activity (Mus musculus [3]) was 118. It also gave a Locomotor activity (Mus musculus [4]) of 41, a Locomotor activity (Mus musculus [5]) of 106 and a Locomotor activity (Mus musculus [6]) of 127. It also gave a Locomotor activity (Mus musculus [7]) of 31, a Locomotor activity (Mus musculus [8]) of 59 and a Locomotor activity (Mus musculus [9]) of 83. It also gave a Locomotor activity (Mus musculus [10]) of 8, a Locomotor activity (Mus musculus [11]) of 91 and a Locomotor activity (Mus musculus [12]) of 13.
